Here are results for 14 molecules from PubChem BioAssay (NCI).

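Results reflect a 48-hour exposure of cells in 96-well plates to compound at five concentrations. TGI denotes the concentration required for complete inhibition of growth.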

In one assay the test system is RXF-631 renal. Nature of the assay: NCI anticancer screen, dose series, 48 h.
The test system of another assay is SNB-78 CNS. Nature of the assay: NCI anticancer screen, dose series, 48 h.

Regarding `NC(=O)c1cccc([C@@H]2O[C@H](CO)[C@@H](O)[C@H]2O)c1`, the TGI in the assay with RXF-631 renal came out at 43.2 µM; in the assay with SNB-78 CNS, 24.4 µM.

Consider `Cc1ccc(S(=O)(=O)c2c(N)n(CCN(C)C)c3nc4ccccc4nc23)cc1`, for which the TGI with SNB-78 CNS was greater than 100 µM.

In the case of `COc1ccc(CCNCCCC2c3ccccc3-c3ccccc32)cc1OC`, the TGI in the assay with SNB-78 CNS came to 32.1 µM.

Take `CC(CCCOC(c1ccccc1)(c1ccccc1)c1ccccc1)OC(=O)Nc1ccccc1` (configuration not stated): in the assay on SNB-78 CNS, the TGI came to 31.9 µM.

Consider `O=[N+]([O-])c1cccc(C2=NOC3C4CCC(C4)C23)c1` (configuration not stated), for which the TGI in the assay with RXF-631 renal is greater than 100 µM.

`O=C(CC1C(=O)c2ccccc2C1=C1C(=O)c2ccccc2C1=O)c1ccccc1` (configuration not stated): the TGI in the assay with SNB-78 CNS is greater than 100 µM.

The molecule `CC1=C(C(=O)Nc2ccc([N+](=O)[O-])cc2)C(c2ccccc2F)C(C(=O)Nc2ccc([N+](=O)[O-])cc2)=C(C)N1` returned a TGI in the assay with RXF-631 renal greater than 100 µM.

In the assay on SNB-78 CNS, `CCC(=O)N/N=C(\C=C\c1cccc(O)c1)c1sc(Nc2ccc(C)cc2[N+](=O)[O-])nc1C` returned a TGI greater than 100 µM.

On to `CCOC(OC1=C(C#N)CCCC1)C(C)[Se]c1ccccc1` (configuration not stated), for which the TGI in the assay with SNB-78 CNS is greater than 100 µM.

In the assay on SNB-78 CNS, `COC(=O)c1ccc(NCc2cc(O)ccc2O)cc1` registered a TGI of 52.1 µM.

For `Cc1ccccc1N=NC(C(=O)c1ccccc1)C(=O)c1ccccc1`, the TGI with RXF-631 renal is greater than 100 µM.

`Cc1ccc(NC(=O)C(=O)Cc2cc[n+]([O-])cc2)cc1` came in with a TGI in the assay on SNB-78 CNS greater than 100 µM.

Regarding `Cc1cc(N(CCC#N)CCC#N)ccc1C=Nc1ccc(C(=O)NN2C(=O)/C(=C/c3ccc(N(CCC#N)CCC#N)cc3)N=C2c2cc([N+](=O)[O-])ccc2Cl)cc1`, the TGI with RXF-631 renal and with SNB-78 CNS was greater than 100 µM throughout.

In the case of `CC(=O)C1=CCC2c3[nH]c4ccccc4c3CCN2C1` (configuration not stated), the TGI with RXF-631 renal and with SNB-78 CNS was greater than 100 µM in each case.
